Experimental findings from PubChem BioAssay (NCI) are described below.

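Where inhibition never reached the appropriate level, the endpoint shown equals the highest concentration tested. Otherwise, values were interpolated linearly from a five-concentration, 48-hour dose response in 96-well plates. GI50 = concentration required for 50% inhibition of growth. TGI marks complete inhibition of growth.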

Common to all, as to experiment: NCI-60 cell line screen, 48 h
In assay [1] the test system is CCRF-CEM leukemia.
For assay [2], the system named is EKVX NSCLC.
The test system of assay [3] is LOX IMVI melanoma.
Assay [4] has as its system NCI-H522 lung.
The subject of assay [5] is OVCAR-8 ovarian.
The subject of assay [6] is RPMI-8226 leukemia.
In assay [7] the test system is SF-539 CNS.
The test system of assay [8] is SK-MEL-2 melanoma.
The subject of assay [9] is SK-MEL-28 melanoma.
Assay [10] relates to UACC-62 melanoma.

Consider `O=C1/C(=C/c2ccccc2)CNC/C1=C\c1ccccc1`, for which the TGI is over 25.5 µM in assay [1]; 16.5 µM in assay [2]; 2.05 µM in [3]; 2.66 µM in [4]; 5.88 µM in [5]; 0.787 µM in assay [6]. Also, the TGI came out at 3.46 µM in assay [7], 9.18 µM in [8], 3.9 µM in assay [9] and 3.69 µM in assay [10].
For `O=C(c1ccccc1)c1nnc(C(=O)c2ccccc2)nn1`, the TGI in assay [1], in assay [2], in assay [3], in assay [4], in assay [5] and in assay [6] was over 344 µM throughout. Further, the TGI in [7], in assay [8], in assay [9] and in assay [10] was over 344 µM in each case.
As to `COc1cc(C2NC(=O)c3ccccc3N2)ccc1OCCCCCOc1c(OC)cc(C2=NOC(c3cc(OC)c(OC)c(OC)c3)C2)cc1OC` (centres undefined), the GI50 in [1] was 0.627 µM; in assay [2], 0.365 µM; in [3] it was 16.7 µM; in [4], 17.1 µM; in [5] it was 25.2 µM; in assay [6] it was 0.0754 µM. In addition, the GI50 in assay [7] is 19.4 µM; in [8], 35.9 µM; in [9], 4.13 µM; in assay [10], 0.506 µM. For the same compound, the TGI in [1] is over 77.6 µM; in assay [2], over 100 µM; in assay [3] it was over 100 µM; in assay [4], over 56.2 µM; in assay [5], over 100 µM; in assay [6] it was 1.1 µM. The TGI in [7] is 84.7 µM; in assay [8], over 100 µM; in assay [9], over 100 µM; in assay [10] it was over 100 µM.
Take `CC[CH2][Sn]([CH2]CC)([O]C(=O)c1cccnc1SC)[O][Sn]([CH2]CC)([CH2]CC)[O]C(=O)c1cccnc1SC`: the GI50 is 0.0691 µM in assay [1]; 0.699 µM in assay [2]; 0.23 µM in [3]; under 0.0196 µM in assay [4]; 0.599 µM in [5]; 0.139 µM in [6]. Besides, the GI50 in assay [7] is 0.468 µM; in assay [8], 0.299 µM; in [9] it was 0.296 µM; in assay [10] it was 0.343 µM. Besides, the TGI in [1] is 0.756 µM; in assay [2], 2.85 µM; in [3] it was 0.567 µM; in assay [4], 0.0784 µM; in [5], 1.92 µM; in assay [6] it was over 100 µM. Besides, the TGI in [7] worked out at 1.24 µM; in assay [8], 0.823 µM; in [9], 0.711 µM; in assay [10], 0.809 µM.
Regarding `COc1ccc(-c2cc(=O)c3c(OC)c(OC)c(OC)cc3o2)cc1`, the TGI was 74 µM in assay [1]; over 100 µM in [2]; 81.5 µM in assay [3]; 85.3 µM in assay [4]; over 100 µM in assay [5]; over 100 µM in assay [6]. Moreover, the TGI was over 100 µM in [7], 56 µM in assay [8], over 100 µM in assay [9] and over 100 µM in assay [10].
Regarding `C[C@]12CC[C@H]3[C@@H](CC=C4C[C@@H](O)CC[C@@]43C)[C@@H]1CC[C@@H]2N(CCO)CCO`, the TGI is over 100 µM in assay [1]; 78.1 µM in assay [2]; over 100 µM in [3]; over 100 µM in assay [4]; over 100 µM in assay [5]; over 100 µM in assay [6]. In addition, the TGI in [7], in [8], in assay [9] and in assay [10] was over 100 µM each time.
As to `COC1/C=C\C=C(/C)C(=O)NC2=CC(=O)C(=O)C(=C2O)CC(C)CC(OC)C(O)C(C)/C=C(\C)C1OC(N)=O` (centres undefined), the TGI was 25.8 µM in assay [1]; 32.7 µM in assay [2]; 13.9 µM in assay [3]; 18.3 µM in assay [4]; over 52.4 µM in assay [5]; 33.5 µM in assay [6]. The TGI in assay [7] is 22.5 µM; in assay [8], over 60.5 µM; in assay [9] it was over 49.3 µM; in [10], over 32.6 µM.
Regarding `OCc1c[nH]c2ccccc12`, the GI50 in [1] was 26.9 µM; in assay [2] it was 15.5 µM; in assay [3], 16.2 µM; in [4] it was 16.7 µM; in [5], 29.8 µM; in assay [6], 20.6 µM. In addition, the GI50 in assay [7] is 19.3 µM; in [8], 17.4 µM; in [9], 23.5 µM; in assay [10] it was 15.3 µM. The TGI in [1] was over 100 µM; in assay [2], 63.3 µM; in [3] it was 32.7 µM; in [4], 37.1 µM; in assay [5], over 100 µM; in assay [6], 64.2 µM. The TGI is 46.1 µM in assay [7], 32.8 µM in assay [8], 50.1 µM in assay [9] and 35.8 µM in assay [10].
Consider `CC(=O)OCCN1c2ccccc2Sc2cnccc21`, for which the TGI in assay [1], in assay [2], in assay [3], in [4], in assay [5] and in assay [6] was over 10 µM each time. Also, the TGI in [7], in assay [8], in assay [9] and in assay [10] was over 10 µM each time.
On to `N#Cc1ccc(O)c(C2=NCC(c3cccc(Oc4ccccc4)c3)O2)c1` (centres undefined), for which the GI50 was 0.555 µM in [1]; 0.507 µM in assay [2]; 0.42 µM in assay [3]; 1.17 µM in [4]; 0.578 µM in assay [5]; 0.715 µM in assay [6]. The GI50 is 1.83 µM in assay [7], 2.41 µM in assay [8], 2.09 µM in assay [9] and 1.03 µM in [10]. Moreover, the TGI in [1] is over 100 µM; in [2], over 100 µM; in [3], 12.7 µM; in assay [4] it was 12.3 µM; in assay [5] it was over 100 µM; in [6], over 100 µM. Also, the TGI in [7] was 9.27 µM; in [8], 24.4 µM; in assay [9] it was over 100 µM; in assay [10], 2.27 µM.
As for `COC12C=C(C)C(CC1)CC2C(=O)O` (centres undefined), the TGI in [1], in [2], in assay [3], in assay [4], in assay [5] and in assay [6] was over 100 µM in each case. For the same compound, the TGI in assay [7], in assay [8], in assay [9] and in [10] was over 100 µM throughout.
Consider `Brc1cccc(C=NC23CC4CC(CC(C4)C2)C3)c1`, for which the TGI in [1], in assay [2], in assay [3], in [4], in assay [5] and in assay [6] was over 100 µM in each case. Further, the TGI in assay [7], in assay [8], in [9] and in assay [10] was over 100 µM throughout.
Regarding `O=C(N/N=C/c1ccccc1O)c1ccccc1Nc1ccnc(C(F)(F)F)c1`, the GI50 in assay [1] was 0.123 µM; in [2] it was 0.302 µM; in assay [3] it was 0.279 µM; in [4], 5.74 µM; in assay [5], 0.711 µM; in assay [6], 0.189 µM. Besides, the GI50 is 0.545 µM in assay [7], 3.61 µM in assay [8], 1.71 µM in assay [9] and 0.365 µM in assay [10]. In addition, the TGI is 67.2 µM in [2]; over 54.7 µM in [3]; over 58.9 µM in [4]; over 37.4 µM in assay [5]; 1.64 µM in assay [6]; 11.3 µM in [7]. Besides, the TGI was over 60.5 µM in assay [8], over 88.1 µM in assay [9] and 7 µM in assay [10].
On to `COc1ccc(C2=CC3CCC2C3)cc1` (centres undefined), for which the TGI in assay [1], in [2], in [3], in assay [4], in [5] and in [6] was over 100 µM throughout. Further, the TGI in [7], in [8], in [9] and in assay [10] was over 100 µM each time.
Consider `CCCn1cnc2c(SCc3ccccc3Cl)nc(N)nc21`, for which the GI50 was 5.9 µM in assay [1]; 24.2 µM in [2]; 4.86 µM in assay [3]; 19.4 µM in assay [4]; 15.3 µM in [5]; 6.28 µM in assay [6]. In addition, the GI50 is 9.81 µM in assay [7], 22.6 µM in assay [8], 27 µM in assay [9] and 8.53 µM in assay [10]. Besides, the TGI is 47.3 µM in assay [1]; over 100 µM in assay [2]; 20.3 µM in assay [3]; 71.1 µM in assay [4]; over 100 µM in assay [5]; 28.2 µM in assay [6]. Also, the TGI in [7] was 44.8 µM; in assay [8], 50.9 µM; in assay [9], over 100 µM; in [10], 22.7 µM.
